This is an account of results in US11214803B2, “Modulators of YAP1 expression” (Ionis Pharmaceuticals, Inc., priority 2019, dated 2022).

Strand notation (5' to 3'): a small letter for the sugar, then the base; units joined by * are phosphorothioate-linked, units joined directly phosphodiester-linked; [ ] holds rarer units or linkages, { } end groups; capitals alone tell only the bases. k = constrained ethyl (cEt); [5mC] = 5-methylcytosine; d = 2'-deoxy (DNA)

For this series, the system named is Yap1 mRNA. In words: Antisense inhibition of human Yap1 in A-431 cells by cEt gapmers, single dose (Example 2, RTS4814). It is filed as cell-based. Summed up:
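Single-dose knockdown screen of 3-10-3 cEt phosphorothioate gapmers at 2,000 nM added by free uptake to A-431 cells. After roughly 48 h, RNA was isolated and Yap1 transcript measured by RT-qPCR, with results given as % UTC.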

The mark [1] stands for this setting: Table 22, Yap1 mRNA as percent of untreated control, 3-10-3 cEt gapmers, single dose.
[2] abbreviates: Table 23, Yap1 mRNA as percent of untreated control, 3-10-3 cEt gapmers, single dose.
The mark [3] stands for this setting: Table 24, Yap1 mRNA as percent of untreated control, 3-10-3 cEt gapmers targeting SEQ ID NO.: 1, and 2.
Where [4] appears, read: Table 25, Yap1 mRNA as percent of untreated control, 3-10-3 cEt gapmers targeting SEQ ID NO.: 1, and 2.
Setting [5] is: Yap1 mRNA as percent of untreated control, A-431 cells, 3-10-3 cEt gapmers targeting SEQ ID NO.: 1, and 2, Table 30.
Where [6] appears, read: Yap1 mRNA as percent of untreated control, A-431 cells, 3-10-3 cEt gapmers targeting SEQ ID NO.: 1, and 2, Table 31.
The mark [7] stands for this setting: Table 33, Yap1 mRNA, percent of untreated control, 3-10-3 cEt gapmers targeting SEQ ID NO.: 1, and 2.

Consider “1076520 (antisense kA*kA*kT*dT*dA*dT*dA*dT*dG*d[5mC]*dA*dG*d[5mC]*kA*kG*k[5mC]) [Compound 1076520]”, for which, under setting [1], the “YAP1 (% UTC)” value is 21 % UTC.
In the case of “1076521 (antisense kA*k[5mC]*kT*dA*dA*dA*dG*dG*dA*dG*dT*d[5mC]*dA*kT*kG*kA) [Compound 1076521]”, the “YAP1 (% UTC)” value under setting [2] came out at 67 % UTC.
For “1076522 (antisense kG*k[5mC]*kA*d[5mC]*dT*dA*dA*dA*dG*dG*dA*dG*dT*k[5mC]*kA*kT) [Compound 1076522]”, under setting [3], the “YAP1 (% UTC)” value is 35 % UTC.
For “1076523 (antisense kA*kT*kT*dT*dA*dT*dA*dT*d[5mC]*dA*dG*dG*dT*k[5mC]*kA*kA) [Compound 1076523]”, the “YAP1 (% UTC)” value under setting [4] was determined as 5 % UTC.
Turning to “1076528 (kT*kT*kA*dT*dA*dA*dT*dG*dG*dG*dA*dG*dG*kA*kT*kT; antisense) [compound 1076528]”, under setting [5], the “YAP1 (% UTC)” value is given as 86 % UTC.
Consider “1076529 (k[5mC]*kT*kA*dT*dA*dA*dT*dG*dA*dG*dG*dA*dT*kT*kA*k[5mC]; antisense) [compound 1076529]”, for which, under setting [6], the “YAP1 (% UTC)” value turned out to be 108 % UTC.
In the case of “1076531 (kA*k[5mC]*kT*dA*dT*dA*dA*dA*dG*dG*dG*dT*dT*kT*kA*kG; antisense) [compound 1076531]”, under setting [7], the “YAP1 (% UTC)” value was found to be 66 % UTC.
For the substance “1076548 (antisense k[5mC]*kA*k[5mC]*d[5mC]*dA*dA*d[5mC]*d[5mC]*dT*dG*dT*dT*dA*kA*kG*kG) [Compound 1076548]”, the “YAP1 (% UTC)” value (Table 18, A-431 cells, 5,000 cells per well, free uptake, 2,000 nM modified oligonucleotide, approx. 48 hours, RTS4814, normalized to RIBOGREEN, Yap1 mRNA as percent of untreated control) is given as 106 % UTC.
“1076549 (antisense kG*kT*kG*d[5mC]*dA*dA*dA*dA*dT*dA*d[5mC]*d[5mC]*dT*kT*kT*kG) [Compound 1076549]”: under “Table 19, A-431 cells, 5,000 cells per well, free uptake, 2,000 nM modified oligonucleotide, approx. 48 hours, RTS4814, normalized to RIBOGREEN, Yap1 mRNA as percent of untreated control”, the “YAP1 (% UTC)” value is given as 8 % UTC.
As to “1076550 (antisense kT*kA*k[5mC]*d[5mC]*dA*dA*d[5mC]*d[5mC]*dT*dG*dT*dA*dT*k[5mC]*k[5mC]*kA) [Compound 1076550]”, the “YAP1 (% UTC)” value (Table 20, Yap1 mRNA, percent of untreated control, 3-10-3 cEt gapmers targeting SEQ ID NO.: 1 and 2) was 61 % UTC.
On to “1076551 (antisense kG*kT*kG*dG*dA*dA*dT*dA*dG*d[5mC]*dA*dG*d[5mC]*k[5mC]*kA*kT) [Compound 1076551]”, for which, where the note is “Table 21, Yap1 mRNA, percent of untreated control, 3-10-3 cEt gapmers targeting SEQ ID NO.: 1 and 2”, the “YAP1 (% UTC)” value turned out to be 67 % UTC.
As to “1076552 (antisense kA*kT*kG*dT*dA*dT*dA*dA*dA*dT*dA*d[5mC]*d[5mC]*kA*kG*kG) [Compound 1076552]”, under setting [1], the “YAP1 (% UTC)” value turned out to be 7 % UTC.
Consider “1076553 (antisense kT*kG*kG*dG*dA*dA*dT*dA*dA*dT*dT*dT*dG*kG*k[5mC]*k[5mC]) [Compound 1076553]”, for which, under setting [2], the “YAP1 (% UTC)” value was determined as 69 % UTC.
As for “1076554 (antisense kT*kG*kG*dG*dA*dA*dT*dA*dG*dT*dG*dA*dA*kT*kT*kT) [Compound 1076554]”, the “YAP1 (% UTC)” value under setting [3] is 30 % UTC.
Take “1076555 (antisense kT*kG*kG*dG*dA*dA*dT*dA*dG*dT*dA*d[5mC]*dA*k[5mC]*kA*kG) [Compound 1076555]”: the “YAP1 (% UTC)” value under setting [4] stood at 19 % UTC.
“1076560 (kT*k[5mC]*k[5mC]*dA*dA*dA*dT*dA*dT*dG*dG*d[5mC]*dA*kT*kA*k[5mC]; antisense) [compound 1076560]”: the “YAP1 (% UTC)” value under setting [5] was determined as 10 % UTC.
With “1076561 (kG*kT*kA*dT*dA*d[5mC]*d[5mC]*dA*dA*dG*d[5mC]*dT*dA*k[5mC]*kT*k[5mC]; antisense) [compound 1076561]”, under setting [6], the “YAP1 (% UTC)” value stood at 22 % UTC.
With “1076562 (kT*kA*kT*dT*dA*d[5mC]*dA*dG*dA*dG*dG*dG*dT*kA*kG*k[5mC]; antisense) [compound 1076562]”, the “YAP1 (% UTC)” value (Table 32, Yap1 mRNA, percent of untreated control, 3-10-3 cEt gapmers targeting SEQ ID NO.: 1, and 2) worked out at 17 % UTC.
On to “1076563 (k[5mC]*kA*kA*dA*dG*dT*dA*dA*dT*dT*dA*dA*dA*k[5mC]*kG*kA; antisense) [compound 1076563]”, for which the “YAP1 (% UTC)” value under setting [7] is listed as 91 % UTC.
